Source: PubChem BioAssay AID248 (DTP/NCI, 2004)
“And” between values parts separate entries of the source, which are not always exact repeats. Identical values can stand only once. Toxic doses and inconclusive results are not listed.

System: L1210 leukemia ip in BDF1 mice, survival T/C
Assay: NCI In Vivo Anticancer Drug Screen. Data for tumor model L1210 Leukemia (intraperitoneal) in B6D2F1 (BDF1) mice
Conditions: higher = longer survival
In short: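 Mice bearing the transplanted tumor received compound or vehicle. Survival of the treated group was divided by that of the vehicle-treated control group to give the ratio.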

N=c1ccn2c(n1)OC1C(O)C(CO)OC12 (centres undefined)
T/C (endpoint: mean survival time, dose: 0.79 mg/kg/injection, schedule: Q03HX024 (ip), vehicle: water): 110 % of control
T/C (endpoint: mean survival time, dose: 1.56 mg/kg/injection, schedule: Q01DX009 (ip), vehicle: water): 103 % of control
T/C (endpoint: mean survival time, dose: 3.13 mg/kg/injection, schedule: Q01DX009 (ip), vehicle: water): 110 % of control
T/C (endpoint: mean survival time, dose: 100.0 mg/kg/injection, schedule: Q04DX003 (ip), vehicle: water): 169 % of control
T/C (endpoint: mean survival time, dose: 118.0 mg/kg/injection, schedule: Q01DX009 (ip), vehicle: clinical formulation): 203 % of control
T/C (endpoint: mean survival time, dose: 118.0 mg/kg/injection, schedule: Q01DX009 (ip), vehicle: saline): 195 % of control
T/C (endpoint: mean survival time, dose: 177.0 mg/kg/injection, schedule: Q01DX009 (ip), vehicle: clinical formulation): 213 % of control
T/C (endpoint: mean survival time, dose: 177.0 mg/kg/injection, schedule: Q01DX009 (ip), vehicle: saline): 230 % of control
T/C (endpoint: mean survival time, dose: 200.0 mg/kg/injection, schedule: Q04DX003 (ip), vehicle: water): 180 % of control
T/C (endpoint: mean survival time, dose: 266.0 mg/kg/injection, schedule: Q01DX009 (ip), vehicle: clinical formulation): 250 % of control
T/C (endpoint: mean survival time, dose: 266.0 mg/kg/injection, schedule: Q01DX009 (ip), vehicle: saline): 258 % of control
T/C (endpoint: mean survival time, dose: 400.0 mg/kg/injection, schedule: Q01DX009 (ip), vehicle: clinical formulation): 254 % of control
T/C (endpoint: mean survival time, dose: 400.0 mg/kg/injection, schedule: Q01DX009 (ip), vehicle: saline): 246 % of control
T/C (endpoint: mean survival time, dose: 400.0 mg/kg/injection, schedule: Q04DX003 (ip), vehicle: water): 215 % of control
T/C (endpoint: mean survival time, dose: 600.0 mg/kg/injection, schedule: Q01DX009 (ip), vehicle: clinical formulation): 101 % of control
T/C (endpoint: mean survival time, dose: 1200.0 mg/kg/injection, schedule: Q01DX001 (ip), vehicle: saline): 158 % of control
T/C (endpoint: mean survival time, dose: 1600.0 mg/kg/injection, schedule: Q01DX001 (ip), vehicle: saline): 154 % of control and 161 % of control and 166 % of control
T/C (endpoint: mean survival time, dose: 2000.0 mg/kg/injection, schedule: Q01DX001 (ip), vehicle: saline): 161 % of control and 170 % of control and 172 % of control
T/C (endpoint: median survival time, dose: 5.0 mg/kg/injection, schedule: Q03HX008 (ip), vehicle: saline): 161 % of control
T/C (endpoint: median survival time, dose: 12.5 mg/kg/injection, schedule: Q01DX009 (ip), vehicle: saline): 157 % of control
T/C (endpoint: median survival time, dose: 25.0 mg/kg/injection, schedule: Q01DX009 (ip), vehicle: saline): 178 % of control
T/C (endpoint: median survival time, dose: 25.0 mg/kg/injection, schedule: Q03HX024 (ip), vehicle: water): 170 % of control and 250 % of control
T/C (endpoint: median survival time, dose: 50.0 mg/kg/injection, schedule: Q01DX009 (ip), vehicle: saline): 184 % of control
T/C (endpoint: median survival time, dose: 50.0 mg/kg/injection, schedule: Q01DX009 (ip), vehicle: steriod suspending solution): 170 % of control
T/C (endpoint: median survival time, dose: 50.0 mg/kg/injection, schedule: Q03HX016 (ip), vehicle: saline): 211 % of control
T/C (endpoint: median survival time, dose: 50.0 mg/kg/injection, schedule: Q03HX024 (ip), vehicle: saline): 255 % of control
T/C (endpoint: median survival time, dose: 50.0 mg/kg/injection, schedule: Q03HX024 (ip), vehicle: water): 205 % of control and 230 % of control
T/C (endpoint: median survival time, dose: 100.0 mg/kg/injection, schedule: Q01DX009 (ip), vehicle: saline): 190 % of control and 205 % of control
T/C (endpoint: median survival time, dose: 100.0 mg/kg/injection, schedule: Q01DX009 (ip), vehicle: steriod suspending solution): 185 % of control
T/C (endpoint: median survival time, dose: 100.0 mg/kg/injection, schedule: Q01DX009 (oral), vehicle: saline): 166 % of control
T/C (endpoint: median survival time, dose: 100.0 mg/kg/injection, schedule: Q03HX008 (ip), vehicle: saline): 155 % of control
T/C (endpoint: median survival time, dose: 100.0 mg/kg/injection, schedule: Q03HX016 (ip), vehicle: saline): 233 % of control
T/C (endpoint: median survival time, dose: 100.0 mg/kg/injection, schedule: Q03HX024 (ip), vehicle: saline): 322 % of control
T/C (endpoint: median survival time, dose: 100.0 mg/kg/injection, schedule: Q03HX024 (ip), vehicle: water): 250 % of control and 270 % of control
T/C (endpoint: median survival time, dose: 100.0 mg/kg/injection, schedule: Q04DX003 (oral), vehicle: water): 111 % of control
T/C (endpoint: median survival time, dose: 108.0 mg/kg/injection, schedule: Q01DX008 (ip), vehicle: water): 179 % of control
T/C (endpoint: median survival time, dose: 120.0 mg/kg/injection, schedule: Q01DX001 (ip), vehicle: water): 166 % of control
T/C (endpoint: median survival time, dose: 160.0 mg/kg/injection, schedule: Q01DX001 (ip), vehicle: water): 166 % of control
T/C (endpoint: median survival time, dose: 180.0 mg/kg/injection, schedule: Q01DX008 (ip), vehicle: water): 182 % of control
